Where a name gives a salt, the structure may show the parent alone. Read-outs that look alike come from different tables or passages of the source.
Columns and labels:
[1] = test system: DENV-2; test: DENV-2 infection assay / secondary screen (E protein staining); type: cell-based, dengue virus serotype 2; conditions: Dengue virus, DENV2, Huh-7, 24 h, read-out: % inhibition (DENV-2 screen)
[2] = test system: HeLa Kyoto cells; conditions: human, 10 µM
[3] = test system: SFV; test: microbe, parasite or virus in culture; type: cell-based, Semliki Forest virus; conditions: for inhibition at 10 µM / IC50: Semliki Forest virus; for inhibition at 10 µM: M-HeLa, read-out: % inhibition (SFV screen); for IC50: HeLa Kyoto
[4] = in vitro; conditions: human
[5] = in vitro; conditions: human; remark: listed apart in the source
[6] = test system: HeLa Kyoto cells; conditions: human

## Nc1ncn([C@@H]2O[C@H](CO)[C@@H](O)[C@H]2O)c(=O)n1 [5-azacytidine]
[1]
  inhibition at 10 µM: 9.67%
[2]
  % viability (SFV screen): 75.30%
[3]; 10 µM
  % inhibition (SFV screen): 101.05%
[3]; 7 h
  inhibition at 10 µM: 99.8%
[4]; % viability (SFV screen)
  viability at 10 µM: 75.5%
[5]
  viability at 10 µM: 106%

## Nc1ncnc2c1ncn2[C@@H]1O[C@H](COP(=O)(O)O)[C@@H](O)[C@H]1O [Adenosine 5'-monophosphate monohydrate]
[1]
  inhibition at 10 µM: -177%
[3]; 7 h
  inhibition at 10 µM: 73.4%
[4]; % viability (SFV screen)
  viability at 10 µM: 86.8%
[5]
  viability at 10 µM: 105%

## Nc1c2ccccc2nc2ccccc12 [Aminacrine]
[3]; 7 h
  inhibition at 10 µM: 89.2%
[4]; % viability (SFV screen)
  viability at 10 µM: 87.4%
[5]
  viability at 10 µM: 23.3%

## [H]/N=C(\N/C(=N/[H])NCCCCCCNC(=N)NC(=N)Nc1ccc(Cl)cc1)Nc1ccc(Cl)cc1 [Chlorhexidine]
[3]; 7 h
  inhibition at 10 µM: 96.6%
[4]; % viability (SFV screen)
  viability at 10 µM: 96.2%
[5]
  viability at 10 µM: 16.6%

## CCN(CC)CCOc1ccc(C(=C(Cl)c2ccccc2)c2ccccc2)cc1 [Clomiphene, Clomiphene citrate (Z,E)]
[1]
  inhibition at 10 µM: 99.3%
[3]; 7 h
  inhibition at 10 µM: 77.8%
[6]
  TC50 SFV (7h): 27400 µM
[4]; % viability (SFV screen)
  viability at 10 µM: 97.1%
[5]
  viability at 10 µM: 41.8%

## C[C@@H]1C[C@@H]([C@H](O)CC2CC(=O)NC(=O)C2)C(=O)[C@@H](C)C1 [Cycloheximide]
[1]
  inhibition at 10 µM: 64.5%
[3]; 7 h
  inhibition at 10 µM: 99.9%
[4]
  viability at 10 µM: 94%
[5]
  viability at 24 h, 10 µM: 60.1%

## Nc1ccn([C@@H]2O[C@H](CO)[C@@H](O)C2(F)F)c(=O)n1 [Gemcitabine]
[1]
  inhibition at 10 µM: -137%
[3]; 7 h
  inhibition at 10 µM: 67%
[4]; % viability (SFV screen)
  viability at 10 µM: 102%
[5]
  viability at 10 µM: 61.8%

## CCCCN(CCCC)CCC(O)c1cc2c(Cl)cc(Cl)cc2c2cc(C(F)(F)F)ccc12 (stereo not drawn) [Halofantrine, Halofantrine hydrochloride]
[1]
  inhibition at 10 µM: 83.6%
[3]; 7 h, read-out: IC50 SFV
  IC50: 116 µM
[3]; read-out: IC50 SFV (7 h)
  IC50: > 100 µM
[3]; 7 h
  inhibition at 10 µM: 102%
[6]
  TC50 SFV (7h): 290400 µM
[4]; % viability (SFV screen)
  viability at 10 µM: 96.9%
[5]
  viability at 10 µM: 89.4%

## Clc1cc(Cl)c(OCC#CI)cc1Cl [Haloprogin]
[1]
  inhibition at 10 µM: 1.64%
[3]; 7 h
  inhibition at 10 µM: 99.8%
[4]; % viability (SFV screen)
  viability at 10 µM: 75.4%
[5]
  viability at 10 µM: 104%

## c1ccc2c(c1)OCC(C1=NCCN1)O2 (stereo not drawn) [Idazoxan hydrochloride]
[1]
  inhibition at 10 µM: 48.8%
[3]; 7 h
  inhibition at 10 µM: 94.5%
[4]; % viability (SFV screen)
  viability at 10 µM: 67.6%
[5]
  viability at 10 µM: 71.2%

## CN[C@@H]1C[C@@H](c2ccc(Cl)c(Cl)c2)c2ccccc21 [Indatraline hydrochloride]
[3]; 7 h
  inhibition at 10 µM: 72.2%
[4]; % viability (SFV screen)
  viability at 10 µM: 76.4%
[5]
  viability at 10 µM: 1.66%

## CCOC(=O)C1=C(C)NC(C)=C(C(=O)OCC)C1c1ccccc1/C=C/C(=O)OC(C)(C)C [Lacidipine]
[1]
  inhibition at 10 µM: 98%
[3]; 7 h, read-out: IC50 SFV
  IC50: 23.7 µM
[3]; 7 h
  inhibition at 10 µM: 79.8%
[6]; 7 h
  TC50 SFV (7h): 27700 µM
[4]; % viability (SFV screen)
  viability at 10 µM: 80.6%
[5]
  viability at 10 µM: 75.7%

## OC(c1cc(C(F)(F)F)nc2c(C(F)(F)F)cccc12)C1CCCCN1 (stereo not drawn) [Mefloquine hydrochloride]
[1]
  inhibition at 10 µM: -22.1%
[3]; 7 h
  inhibition at 10 µM: 94.3%
[4]; % viability (SFV screen)
  viability at 10 µM: 72.7%
[5]
  viability at 10 µM: 7.25%

## CSc1ccc2c(c1)C(N1CCN(C)CC1)Cc1ccccc1S2 (stereo not drawn) [Methiothepin mesylate]
[3]; 7 h
  inhibition at 10 µM: 84%
[4]; % viability (SFV screen)
  viability at 10 µM: 66.6%
[5]
  viability at 10 µM: 0.1%

## C1CCC(C(CC2CCCCN2)C2CCCCC2)CC1 (stereo not drawn) [Perhexiline maleate]
[3]; 7 h
  inhibition at 10 µM: 101%
[4]; % viability (SFV screen)
  viability at 10 µM: 62.9%
[5]
  viability at 10 µM: 1.42%

## CN1CCN(CCCN2c3ccccc3Sc3ccc(Cl)cc32)CC1 [Prochloperazine, Prochlorperazine dimaleate]
[1]
  inhibition at 10 µM: 98.9%
[3]; 7 h
  inhibition at 10 µM: 73.3%
[6]
  TC50 SFV (7h): 22700 µM
[4]; % viability (SFV screen)
  viability at 10 µM: 84%
[5]
  viability at 10 µM: 46.7%

## O=C1NCCN1CCN1CCC(c2cn(-c3ccc(F)cc3)c3ccc(Cl)cc23)CC1 [Sertindole]
[3]; 7 h
  inhibition at 10 µM: 67.2%
[4]; % viability (SFV screen)
  viability at 10 µM: 105%
[5]
  viability at 10 µM: 26.6%

## CC/C(=C(\c1ccccc1)c1ccc(OCCN(C)C)cc1)c1ccccc1 [Tamoxifen citrate]
[3]; 7 h
  inhibition at 10 µM: 98.3%
[4]; % viability (SFV screen)
  viability at 10 µM: 61.7%

## C/C=C(/C)C(=O)O[C@H]1C(C)=C2[C@H]([C@@H]1OC(=O)CCCCCCC)[C@@](C)(OC(C)=O)C[C@H](OC(=O)CCC)[C@@]1(O)[C@H]2OC(=O)[C@@]1(C)O [Thapsigargin]
[1]
  inhibition at 10 µM: 98%
[3]; 7 h
  inhibition at 10 µM: 83.4%
[4]; % viability (SFV screen)
  viability at 10 µM: 103%
[5]
  viability at 10 µM: 53.3%

## CSc1ccc2c(c1)N(CCC1CCCCN1C)c1ccccc1S2 (stereo not drawn) [Thioridazine hydrochloride]
[3]; 7 h
  inhibition at 10 µM: 89.1%
[4]; % viability (SFV screen)
  viability at 10 µM: 71.3%
[5]
  viability at 10 µM: 5.89%

## C=C(NC(=O)C(=C)NC(=O)c1csc(C2=N[C@@H]3c4csc(n4)[C@H]4NC(=O)c5csc(n5)[C@H]([C@](C)(O)[C@@H](C)O)NC(=O)[C@H]5CSC(=N5)/C(=C/C)NC(=O)[C@H]([C@@H](C)O)NC(=O)c5csc(n5)[C@]3(CC2)NC(=O)[C@H](C)NC(=O)C(=C)NC(=O)[C@H](C)NC(=O)[C@H]([C@@H](C)CC)N[C@@H]2C=Cc3c([C@H](C)O)cc(nc3[C@H]2O)C(=O)O[C@@H]4C)n1)C(N)=O [Thiostrepton]
[3]; 7 h
  inhibition at 10 µM: 65.9%
[4]; % viability (SFV screen)
  viability at 10 µM: 88.5%
[5]
  viability at 10 µM: 18.7%

## Cc1ccc(S(=O)(=O)NC(=O)NN2CCCCCC2)cc1 [Tolazamide]
[1]
  inhibition at 10 µM: 36.5%
[3]; 7 h
  inhibition at 10 µM: 101%
[4]; % viability (SFV screen)
  viability at 10 µM: 113%
[5]
  viability at 10 µM: 116%

## CN1CCN(CCCN2c3ccccc3Sc3ccc(C(F)(F)F)cc32)CC1 [Trifluoperazine dihydrochloride]
[3]; 7 h
  inhibition at 10 µM: 96.5%
[4]; % viability (SFV screen)
  viability at 10 µM: 93.9%
[5]
  viability at 10 µM: 0.13%

Reference: publication PMC6410080 (Viruses, 2019)
